Like-named read-outs stand apart in the source and are kept apart here.
How the values were obtained:
DYRK1A kinase = DYRK1A kinase (Homo sapiens (Human), UniProt Q13627); experiment: DYRK1A kinase assay (Ser/Thr 18 peptide Z-lyte, FRET)
[1] = system: Wnt activity (Sp5-Luc reporter in SW480 colon carcinoma cells); experiment: Wnt activity screening assay (Sp5-Luc reporter gene assay); assay type: cell-based, human
In short: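 SW480 cells stably carrying an Sp5 promoter (eight TCF/LEF sites)-firefly luciferase reporter were plated in DMEM with 1% FBS and treated with a 10-point, 1:3 dilution series from 10 μM (0.1% DMSO) for 36 to 48 h at 37° C. Luminescence was normalized to DMSO controls, and EC50 came from four-parameter nonlinear regression.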

[2] = system: Tau phosphorylation at Ser396 (pSer396), SH-SY5Y cells; experiment: Tau phosphorylation at Ser396 (pSer396) in SH-SY5Y cells, ELISA/western blot; assay type: cell-based, human; details: Homo sapiens;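 note: cell lysates probed for reduced Tau pSer396 via ELISA (colorimetric) or western blot (chemiluminescence), both with one shared pSer396 antibody, EC50 for lowering phosphorylation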
[3] = system: LL29 cells (primary human fibroblasts derived from IPF patients), α-smooth muscle actin; experiment: Inhibition of fibrotic process: αSMA in TGF-β1-treated primary human fibroblasts from IPF patients (LL29 cells); assay type: cell-based; details: Homo sapiens, Fibroblast; for EC50: 96 h, % αSMA-positive LL29 cells, TGF-β1 20 ng/mL, 4 days; for inhibition at 10 µM: read-out: percent inhibition at 10 μM
In short: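 IPF-patient lung fibroblasts (LL29) were stimulated with TGF-β1 (20 ng/mL) in 1% FBS medium with compound (11-point 1:2 series, 0.1% DMSO) for 4 days at 37 °C. Fixed cells were immunostained for αSMA and imaged, excluding SYTOX-positive dead cells. The % αSMA-positive cells was normalized to TGF-β1/DMSO control wells.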

IL-6 = IL-6 inhibition in LPS-stimulated human peripheral blood mononuclear cells (HTRF); assay type: cell-based; details: Homo sapiens, PBMC; for EC50: IL-6, LPS-stimulated huPBMCs, HTRF; for inhibition at 10 µM: read-out: percent value in parentheses below EC50 >10
In short: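 Fresh human PBMCs (5000 cells/well, 1% FBS RPMI) preincubated with compound (10-point 1:3 series from 10 μM, 0.25% DMSO) 2 h at 37 °C, then stimulated with 50 ng/mL E. coli LPS for 22 h. IL-6 by HTRF 665/620 ratio; DMSO-normalized, EC50 from 4-parameter fit.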

[4] = system: SW480 colon carcinoma cells; experiment: Cell viability assay (CellTiter-Glo) in SW480 cells; assay type: cell-based, human;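 note: SW480 cells stably carrying an Sp5-luciferase TCF/LEF reporter, luminescent ATP signal as viability measure, DMSO-treated cells as control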
GSK3β kinase = GSK3β kinase (Homo sapiens (Human), UniProt P49841); experiment: GSK3β kinase assay (Ser/Thr 09 peptide Z-lyte, FRET); assay type: biochemical; details: method text calls the value IC50;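 note: Coumarin/fluorescein emission ratio converted to percent phosphorylation against unphosphorylated (0%) and phosphorylated (100%) controls, 1 h compound incubation at room temperature, 11-point threefold dilutions from 10 µM, run in duplicate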
[5] = Homo sapiens; Sp5-Luc reporter, SW480 cells, 36 to 48 hours
[6] = SH-SY5Y cells, overnight (16-18 h), read-out: pSer396 Tau EC50
[7] = Homo sapiens, 96 h; cell viability, SW480 cells, four days, CellTiter-Glo
[8] = DYRK1A kinase, method text calls the value IC50
[9] = Homo sapiens, SW480; read-out: percent inhibition at 10 μM
[10] = SH-SY5Y, read-out: pSer396 Tau EC50 (μM)
[11] = Homo sapiens, SW480, read-out: percent inhibition at 10 μM

Sequence of GSK3β kinase (P49841 whole entry): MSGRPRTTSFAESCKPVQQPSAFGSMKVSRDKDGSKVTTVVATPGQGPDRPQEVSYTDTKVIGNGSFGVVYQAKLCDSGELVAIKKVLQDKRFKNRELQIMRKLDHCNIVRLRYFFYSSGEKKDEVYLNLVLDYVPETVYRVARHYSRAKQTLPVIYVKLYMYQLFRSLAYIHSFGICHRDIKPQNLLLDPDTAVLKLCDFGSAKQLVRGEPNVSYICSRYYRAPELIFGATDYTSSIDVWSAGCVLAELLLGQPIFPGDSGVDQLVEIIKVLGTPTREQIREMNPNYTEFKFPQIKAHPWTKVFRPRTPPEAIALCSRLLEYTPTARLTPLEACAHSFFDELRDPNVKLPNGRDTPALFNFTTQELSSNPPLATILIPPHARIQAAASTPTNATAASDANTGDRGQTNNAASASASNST

Compound: [2H]C([2H])([2H])Oc1ccc(C(=O)Nc2cc3cc(-c4cnc(C)n4C)ccc3cn2)cc1 [Compound 164, N-(6-(1,2-Dimethyl-1H-imidazol-5-yl)isoquinolin-3-yl)-4-(methoxy-d3) benzamide]
- EC50 (DYRK1A kinase): 11 nM
- EC50 [1, 5]: 638 nM
- EC50 [2, 6]: > 10 µM
- EC50 [3]: 1480 nM
- EC50 (IL-6): 3390 nM
- EC50 [4, 7]: 782 nM
- EC50 (GSK3β kinase): 4580 nM

Compound: [2H]c1c([2H])c(C(=O)Nc2cc3cc(-c4cnc(C)n4C)ccc3cn2)c([2H])c([2H])c1OC([2H])([2H])[2H] [Compound 165, N-(6-(1,2-Dimethyl-1H-imidazol-5-yl)isoquinolin-3-yl)-4-(methoxy-d3) benzamide-2,3,5,6-d4]
- EC50 (DYRK1A kinase): 6 nM
- EC50 [1, 5]: 498 nM
- EC50 [2, 6]: > 10 µM
- EC50 [3]: 998 nM
- EC50 (IL-6): 2850 nM
- EC50 [4, 7]: 752 nM
- EC50 (GSK3β kinase): 3740 nM

Compound: [2H]c1c([2H])c(C(=O)Nc2cc3cc(-c4cnc(C)n4C)ccc3cn2)c([2H])c([2H])c1OC [Compound 166, N-(6-(1,2-Dimethyl-1H-imidazol-5-yl)isoquinolin-3-yl)-4-methoxybenzamide-2,3,5,6-d4]
- EC50 (DYRK1A kinase): 9 nM
- EC50 [1, 5]: 525 nM
- EC50 [2, 6]: > 10 µM
- EC50 [3]: 1880 nM
- EC50 (IL-6): 3550 nM
- EC50 [4, 7]: 671 nM
- EC50 (GSK3β kinase): 6380 nM

Compound: Cn1cc(-c2ccc3cnc(NC(=O)C4CCN(C(C)(C)C)CC4)cc3c2)cn1 [Compound 167, 1-(tert-Butyl)-N-(6-(1-methyl-1H-pyrazol-4-yl)isoquinolin-3-yl)piperidine-4-carboxamide]
- EC50 (DYRK1A kinase; [8]): 7 nM
- EC50 [1, 5]: 2350 nM
- EC50 [2, 6]: 0.288 µM
- EC50 [3]: 293 nM
- EC50 (IL-6): 1240 nM
- EC50 [4, 7]: 3340 nM
- EC50 (GSK3β kinase): 96 nM

Compound: Cc1nnc(-c2ccc3cnc(NC(=O)N4CCC(NCC(F)F)CC4)cc3c2)s1 [Compound 168, 4-((2,2-Difluoroethyl)amino)-N-(6-(5-methyl-1,3,4-thiadiazol-2-yl)isoquinolin-3-yl)piperidine-1-carboxamide]
- EC50 (DYRK1A kinase; [8]): 4 nM
- inhibition at 10 µM [1, 9]: 42.2%
- EC50 [1, 5]: > 10000 nM
- EC50 [2, 6]: 0.578 µM
- EC50 [3]: 1300 nM
- inhibition at 10 µM (IL-6): 14.2%
- EC50 (IL-6): > 10000 nM
- EC50 [4, 7]: > 10000 nM
- inhibition at 10 µM [4, 9]: 19.4%
- EC50 (GSK3β kinase): 20 nM

Compound: CCCCN1CCC(C(=O)Nc2cc3cc(-c4cnn(C)c4)ccc3cn2)CC1 [Compound 169, 1-Butyl-N-(6-(1-methyl-1H-pyrazol-4-yl)isoquinolin-3-yl)piperidine-4-carboxamide]
- EC50 (DYRK1A kinase; [8]): 3 nM
- EC50 [1, 5]: 2540 nM
- EC50 [2, 6]: 0.154 µM
- EC50 [3]: 148 nM
- EC50 (IL-6): 1020 nM
- EC50 [4, 7]: 1130 nM
- EC50 (GSK3β kinase): 47 nM

Compound: CC(C)C[N+]1(CC(C)C)CCC(C(=O)Nc2cc3cc(-c4cnn(C)c4)ccc3cn2)CC1 [Compound 170, 1,1-Diisobutyl-4-((6-(1-methyl-1H-pyrazol-4-yl)isoquinolin-3-yl)carbamoyl)piperidin-1-ium]
- EC50 (DYRK1A kinase): 15 nM
- inhibition at 10 µM [1, 9]: 23.1%
- EC50 [1, 5]: > 10000 nM
- EC50 [2, 6]: 9.91 µM
- EC50 [3]: 7090 nM
- inhibition at 10 µM (IL-6): 4.4%
- EC50 (IL-6): > 10000 nM
- EC50 [4, 7]: > 10000 nM
- inhibition at 10 µM [4, 9]: 27%
- EC50 (GSK3β kinase): 52 nM

Compound: Cc1nnc(-c2ccc3cnc(NC(=O)N4C[C@H]5C[C@@H]4CN5C)cc3c2)s1 [Compound 176, (1R,4R)-5-Methyl-N-(6-(5-methyl-1,3,4-thiadiazol-2-yl)isoquinolin-3-yl)-2,5-diazabicyclo[2.2.1]heptane-2-carboxamide]
- EC50 (DYRK1A kinase; [8]): 23 nM
- EC50 [1, 5]: 1040 nM
- EC50 [2, 6]: 4 µM
- EC50 [3]: > 10000 nM
- inhibition at 10 µM [3]: 8.4%
- inhibition at 10 µM (IL-6): 8.4%
- EC50 (IL-6): > 10000 nM
- EC50 [4, 7]: > 10000 nM
- inhibition at 10 µM [4, 9]: 8.3%
- EC50 (GSK3β kinase): 207 nM

Compound: CN[C@H]1CCN(C(=O)Nc2cc3cc(-c4nnc(C)s4)ccc3cn2)C[C@@H]1F [Compound 179, (3S,4S)-3-Fluoro-N-(6-(5-methyl-1,3,4-thiadiazol-2-yl)isoquinolin-3-yl)-4-(methylamino)piperidine-1-carboxamide]
- EC50 (DYRK1A kinase; [8]): 18 nM
- EC50 [1, 5]: 2780 nM
- EC50 [2, 6]: 1.3 µM
- EC50 [3]: > 10000 nM
- inhibition at 10 µM [3]: 10.1%
- inhibition at 10 µM (IL-6): 10.1%
- EC50 (IL-6): > 10000 nM
- EC50 [4, 7]: 5060 nM
- EC50 (GSK3β kinase): 26 nM

Compound: Cc1nnc(-c2ccc3cnc(NC(=O)N4[C@@H]5CC[C@H]4C[C@@H](NCC(F)F)C5)cc3c2)s1 [Compound 188, (1R,5S)-cis-3-((2,2-difluoroethyl)amino)-N-(6-(5-methyl-1,3,4-thiadiazol-2-yl)isoquinolin-3-yl)-8-azabicyclo [3.2.1]octane-8-carboxamide]
- EC50 (DYRK1A kinase; [8]): 3 nM
- EC50 [1, 5]: 8210 nM
- EC50 [2, 10]: 4.8 µM
- EC50 [3]: 2480 nM
- EC50 (IL-6): 5770 nM
- EC50 [4, 7]: > 10000 nM
- inhibition at 10 µM [4, 11]: 28%
- EC50 (GSK3β kinase): 154 nM

Compound: Cc1nnc(-c2ccc3cnc(NC(=O)N4[C@@H]5CC[C@H]4C[C@@H](N)C5)cc3c2)s1 [Compound 193, (1R,5S)-3-endo-Amino-N-(6-(5-methyl-1,3,4-thiadiazol-2-yl)isoquinolin-3-yl)-8-azabicyclo[3.2.1]octane-8-carboxamide]
- EC50 (DYRK1A kinase; [8]): 33 nM
- inhibition at 10 µM [1, 11]: 8.4%
- EC50 [1, 5]: > 10000 nM
- EC50 [2, 10]: > 10 µM
- EC50 [3]: > 10000 nM
- inhibition at 10 µM [3]: 6.5%
- inhibition at 10 µM (IL-6): 6.5%
- EC50 (IL-6): > 10000 nM
- EC50 [4, 7]: > 10000 nM
- inhibition at 10 µM [4, 11]: 12.8%
- EC50 (GSK3β kinase): 330 nM

Compound: Cc1nnc(-c2ccc3cnc(NC(=O)[C@H]4CC[C@H](N5CCN(C)CC5)CC4)cc3c2)s1 [Compound 194, trans-N-(6-(5-methyl-1,3,4-thiadiazol-2-yl)isoquinolin-3-yl)-4-(4-methylpiperazin-1-yl)cyclohexane-1-carboxamide]
- EC50 (DYRK1A kinase; [8]): 3 nM
- EC50 [1, 5]: 681 nM
- EC50 [2, 6]: 0.218 µM
- EC50 [3]: 328 nM
- EC50 (IL-6): 3090 nM
- EC50 [4, 7]: 1260 nM
- EC50 (GSK3β kinase): 12 nM

Compound: Cn1cc(-c2ccc3cnc(NC(=O)[C@H]4CC[C@H](NCCF)CC4)cc3c2)cn1 [Compound 197, trans-4-((2-Fluoroethyl)amino)-N-(6-(1-methyl-1H-pyrazol-4-yl)isoquinolin-3-yl)cyclohexane-1-carboxamide]
- EC50 (DYRK1A kinase; [8]): 3 nM
- EC50 [1, 5]: 1420 nM
- EC50 [2, 6]: 0.57 µM
- EC50 [3]: 233 nM
- EC50 (IL-6): 994 nM
- EC50 [4, 7]: 1270 nM
- EC50 (GSK3β kinase): 87 nM

Compound: COCCN[C@H]1CC[C@H](C(=O)Nc2cc3cc(-c4nnc(C)s4)ccc3cn2)CC1 [Compound 199, trans-4-((2-Methoxyethyl)amino)-N-(6-(5-methyl-1,3,4-thiadiazol-2-yl)isoquinolin-3-yl)cyclohexane-1-carboxamide]
- EC50 (DYRK1A kinase; [8]): 4 nM
- EC50 [1, 5]: 982 nM
- EC50 [2, 6]: 0.234 µM
- EC50 [3]: 3200 nM
- EC50 (IL-6): 3860 nM
- EC50 [4, 7]: 1640 nM
- EC50 (GSK3β kinase): 17 nM

Compound: Cc1nnc(-c2ccc3cnc(NC(=O)[C@H]4CC[C@H](NCCF)CC4)cc3c2)s1 [Compound 200, trans-4-((2-Fluoroethyl)amino)-N-(6-(5-methyl-1,3,4-thiadiazol-2-yl)isoquinolin-3-yl)cyclohexane-1-carboxamide]
- EC50 (DYRK1A kinase; [8]): 6 nM
- EC50 [1, 5]: 841 nM
- EC50 [2, 6]: 0.095 µM
- EC50 [3]: 533 nM
- EC50 (IL-6): 3980 nM
- EC50 [4, 7]: 1390 nM
- EC50 (GSK3β kinase): 14 nM
